Reference: ChEMBL document CHEMBL5236603, “Discovery of mobocertinib, a potent, oral inhibitor of EGFR exon 20 insertion mutations in non-small cell lung cancer” (Bioorg Med Chem Lett, 2023)

Experiments:
[1] = Inhibition of mouse EGFR N771_H773dup H773_V774insNPH […] (NPH) mutant stably expressed in mouse BaF3 cells assessed as cell viability incubated for 3 days by Cell Titer-Glo assay; type: cell-based; conditions: BaF3, 72 h
[2] = Toxicity in SCID mouse assessed as body weight change at 100 mg/kg, po administered for 7 consecutive days; type: organism-based; conditions: in vivo
[3] = system: Tyrosine-protein kinase BTK (Homo sapiens), Q06187 [E41K]; assay: Inhibition of human BTK E41K mutant at 1 uM by hotspot assay relative to control
[4] = Toxicity in SCID mouse assessed as signs of clinical toxicity at 100 mg/kg, po administered for 7 consecutive days; type: organism-based; conditions: in vivo
[5] = biological target: T1, Cytoplasmic tyrosine-protein kinase BMX (Homo sapiens) (UniProt P51813); assay: Inhibition of human BMX at 1 uM by hotspot assay relative to control
T1 sequence (whole entry): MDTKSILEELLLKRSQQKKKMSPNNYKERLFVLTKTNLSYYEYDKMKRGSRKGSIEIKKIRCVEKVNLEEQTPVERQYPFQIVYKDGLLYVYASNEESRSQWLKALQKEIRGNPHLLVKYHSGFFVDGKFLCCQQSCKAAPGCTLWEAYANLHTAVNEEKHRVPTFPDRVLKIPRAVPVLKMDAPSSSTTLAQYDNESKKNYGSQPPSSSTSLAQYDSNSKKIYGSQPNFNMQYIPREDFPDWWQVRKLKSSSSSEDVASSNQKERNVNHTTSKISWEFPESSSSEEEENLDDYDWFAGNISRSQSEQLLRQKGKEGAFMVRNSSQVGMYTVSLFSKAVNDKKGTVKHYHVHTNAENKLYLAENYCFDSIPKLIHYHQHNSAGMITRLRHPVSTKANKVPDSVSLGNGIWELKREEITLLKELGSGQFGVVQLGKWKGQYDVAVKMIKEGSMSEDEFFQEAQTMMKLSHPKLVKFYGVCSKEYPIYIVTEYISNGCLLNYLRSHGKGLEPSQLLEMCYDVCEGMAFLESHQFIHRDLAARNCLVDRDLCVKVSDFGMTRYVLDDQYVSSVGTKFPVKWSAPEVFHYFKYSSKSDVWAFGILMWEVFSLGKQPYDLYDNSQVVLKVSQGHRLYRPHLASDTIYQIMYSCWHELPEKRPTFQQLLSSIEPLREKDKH

[6] = biological target: Epidermal growth factor receptor (Homo sapiens, UniProt P00533); assay: Inhibition of […]-induced wild type EGFR phosphorylation in human A-431 cells pretreated for 2 hrs followed by EGF stimulation by immune assay; type: cell-based
[7] = Cmax in CD-1 mouse at 10 mg/kg, po by LC/MS/MS analysis; type: ADME, organism-based; parameters: dose 10 mg/kg, route po; conditions: in vivo
[8] = biological target: T2, Tyrosine-protein kinase Tec (Homo sapiens) (UniProt P42680); assay: Inhibition of human TEC at 1 uM by hotspot assay relative to control
T2 sequence (whole entry): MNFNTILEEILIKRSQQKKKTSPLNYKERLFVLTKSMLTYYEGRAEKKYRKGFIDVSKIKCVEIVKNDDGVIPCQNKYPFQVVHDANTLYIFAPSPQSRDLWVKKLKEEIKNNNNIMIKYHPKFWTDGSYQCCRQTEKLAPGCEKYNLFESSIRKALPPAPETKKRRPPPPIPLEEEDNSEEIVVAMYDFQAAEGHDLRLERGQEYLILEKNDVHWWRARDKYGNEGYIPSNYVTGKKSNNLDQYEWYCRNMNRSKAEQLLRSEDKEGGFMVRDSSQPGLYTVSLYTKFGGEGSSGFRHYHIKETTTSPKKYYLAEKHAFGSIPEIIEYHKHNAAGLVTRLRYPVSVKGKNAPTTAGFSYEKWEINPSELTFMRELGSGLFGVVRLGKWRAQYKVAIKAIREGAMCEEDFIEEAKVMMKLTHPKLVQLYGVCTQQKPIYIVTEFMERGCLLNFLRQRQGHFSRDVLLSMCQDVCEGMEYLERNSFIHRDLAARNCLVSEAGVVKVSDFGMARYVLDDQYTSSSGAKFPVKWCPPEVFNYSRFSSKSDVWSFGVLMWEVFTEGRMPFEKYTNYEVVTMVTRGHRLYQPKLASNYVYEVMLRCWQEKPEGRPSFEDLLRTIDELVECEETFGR

[9] = Inhibition of mouse EGFR D770_N771insNPG mutant stably expressed in mouse BaF3 cells assessed as cell viability incubated for 3 days by Cell Titer-Glo assay; type: cell-based; conditions: BaF3, 72 h
[10] = AUClast in CD-1 rat at 10 mg/kg, po by LC/MS/MS analysis; type: ADME, organism-based; parameters: dose 10 mg/kg, route po; conditions: in vivo
[11] = biological target: T3, Tyrosine-protein kinase ITK/TSK (Homo sapiens) (UniProt Q08881); assay: Inhibition of human ITK at 1 uM by hotspot assay relative to control
T3 sequence (whole entry): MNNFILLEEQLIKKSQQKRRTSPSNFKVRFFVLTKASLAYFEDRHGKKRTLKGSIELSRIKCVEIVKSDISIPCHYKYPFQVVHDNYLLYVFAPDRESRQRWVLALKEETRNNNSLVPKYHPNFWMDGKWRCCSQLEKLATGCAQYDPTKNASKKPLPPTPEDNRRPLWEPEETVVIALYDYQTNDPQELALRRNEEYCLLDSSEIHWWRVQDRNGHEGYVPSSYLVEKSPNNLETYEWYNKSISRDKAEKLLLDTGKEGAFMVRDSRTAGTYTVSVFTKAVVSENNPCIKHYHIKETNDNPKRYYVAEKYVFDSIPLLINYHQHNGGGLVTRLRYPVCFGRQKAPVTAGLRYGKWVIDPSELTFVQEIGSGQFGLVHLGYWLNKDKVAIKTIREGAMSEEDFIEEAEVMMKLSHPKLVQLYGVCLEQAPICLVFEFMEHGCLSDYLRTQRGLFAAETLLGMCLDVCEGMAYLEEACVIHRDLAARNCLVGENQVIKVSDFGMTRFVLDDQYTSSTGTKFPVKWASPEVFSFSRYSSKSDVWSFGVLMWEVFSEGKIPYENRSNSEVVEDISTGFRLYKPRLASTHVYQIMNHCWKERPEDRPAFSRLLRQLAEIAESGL

[12] = biological target: Epidermal growth factor receptor (Homo sapiens, UniProt P04626+P00533+Q15303+P21860, L858R); assay: Inhibition of mouse EGFR L858R mutant stably expressed in mouse BaF3 cells assessed as cell viability incubated for 3 days by Cell Titer-Glo assay; type: cell-based
[13] = Inhibition of mouse EGFR common activating deletion mutant stably expressed in mouse BaF3 cells assessed as cell viability incubated for 3 days by Cell Titer-Glo assay; type: cell-based; conditions: BaF3, 72 h
BaF3 = assay: In vivo antitumor activity against mouse BaF3 cells expressing EGFR exon 20 insertion (ex20ins) ASV implanted in SCID mouse assessed as tumor growth inhibition at 30 mg/kg, po administered for 7 consecutive days; type: functional; conditions: BaF3, 168 h, time 7 day, read-out: TGI

Epidermal growth factor receptor (Homo sapiens, UniProt P00533), sequence (P00533 whole entry): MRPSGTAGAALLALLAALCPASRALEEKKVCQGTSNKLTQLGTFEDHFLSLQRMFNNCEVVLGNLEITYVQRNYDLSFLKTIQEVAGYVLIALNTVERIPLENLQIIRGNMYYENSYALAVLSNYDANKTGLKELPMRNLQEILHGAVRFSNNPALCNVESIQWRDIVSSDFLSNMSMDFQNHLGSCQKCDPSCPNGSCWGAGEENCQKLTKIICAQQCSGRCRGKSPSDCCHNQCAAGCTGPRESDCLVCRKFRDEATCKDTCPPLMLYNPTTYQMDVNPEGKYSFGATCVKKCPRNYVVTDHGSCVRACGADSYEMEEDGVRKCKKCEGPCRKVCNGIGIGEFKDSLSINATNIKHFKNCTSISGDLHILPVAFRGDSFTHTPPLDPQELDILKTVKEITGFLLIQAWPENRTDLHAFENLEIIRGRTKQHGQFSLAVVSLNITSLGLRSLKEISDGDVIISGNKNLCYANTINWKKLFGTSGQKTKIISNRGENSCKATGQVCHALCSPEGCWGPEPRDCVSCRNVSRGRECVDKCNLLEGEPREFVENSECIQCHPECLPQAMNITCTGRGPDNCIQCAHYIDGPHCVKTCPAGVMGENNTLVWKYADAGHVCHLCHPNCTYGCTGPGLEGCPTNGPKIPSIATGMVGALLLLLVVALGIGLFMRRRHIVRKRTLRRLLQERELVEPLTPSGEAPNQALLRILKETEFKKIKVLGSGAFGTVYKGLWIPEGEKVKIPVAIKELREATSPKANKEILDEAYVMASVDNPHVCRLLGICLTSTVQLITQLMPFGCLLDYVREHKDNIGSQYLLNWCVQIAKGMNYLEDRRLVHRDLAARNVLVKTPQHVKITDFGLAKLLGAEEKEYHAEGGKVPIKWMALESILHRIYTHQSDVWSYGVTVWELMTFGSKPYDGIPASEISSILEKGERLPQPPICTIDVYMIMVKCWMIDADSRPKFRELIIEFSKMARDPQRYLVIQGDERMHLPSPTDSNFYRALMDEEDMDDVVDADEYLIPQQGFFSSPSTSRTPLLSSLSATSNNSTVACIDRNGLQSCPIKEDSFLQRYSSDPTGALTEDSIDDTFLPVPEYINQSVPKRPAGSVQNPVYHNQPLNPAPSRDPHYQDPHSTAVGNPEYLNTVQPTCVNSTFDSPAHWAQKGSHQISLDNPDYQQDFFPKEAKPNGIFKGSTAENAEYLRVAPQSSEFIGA
Tyrosine-protein kinase BTK (Homo sapiens), Q06187 [E41K], sequence (Q06187 whole entry E41K): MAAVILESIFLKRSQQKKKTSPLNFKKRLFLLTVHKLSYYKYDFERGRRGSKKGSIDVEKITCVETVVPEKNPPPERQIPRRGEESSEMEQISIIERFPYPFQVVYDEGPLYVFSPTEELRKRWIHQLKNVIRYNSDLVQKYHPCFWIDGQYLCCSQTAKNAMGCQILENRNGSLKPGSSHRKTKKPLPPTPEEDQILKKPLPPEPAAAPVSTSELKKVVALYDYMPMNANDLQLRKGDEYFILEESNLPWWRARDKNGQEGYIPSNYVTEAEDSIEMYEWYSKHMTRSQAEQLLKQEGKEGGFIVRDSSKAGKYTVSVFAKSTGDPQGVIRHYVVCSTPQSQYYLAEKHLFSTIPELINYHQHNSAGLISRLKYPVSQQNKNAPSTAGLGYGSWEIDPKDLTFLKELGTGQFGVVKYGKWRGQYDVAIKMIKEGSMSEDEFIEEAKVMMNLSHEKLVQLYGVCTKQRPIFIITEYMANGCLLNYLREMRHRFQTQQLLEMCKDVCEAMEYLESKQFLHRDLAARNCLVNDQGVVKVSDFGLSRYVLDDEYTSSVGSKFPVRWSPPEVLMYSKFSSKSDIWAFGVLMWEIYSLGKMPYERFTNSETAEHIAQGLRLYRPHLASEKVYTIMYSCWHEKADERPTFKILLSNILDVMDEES

inhibition [3]: > 81%
inhibition [5]: > 81%
IC50 [6]: 34.5 nM
Cmax [7]: 82 ng/mL
inhibition [8]: > 81%
AUC(0-t) [10]: 1780 ng·h/mL
inhibition [11]: > 81%
SMILES: C=CC(=O)Nc1cc(Nc2ncc(C(=O)OC(C)C)c(-c3cn(C)c4ccccc34)n2)c(OC)cc1N(C)CCN(C)C [MOBOCERTINIB]
IC50 [1]: 18.1 nM
Activity [2]: Non-Toxic
Activity [4]: Non-Toxic
IC50 [9]: 4 nM
IC50 [12]: 3.3 nM
IC50 [13]: 2.7 nM
inhibition in vivo at 30 mg/kg (BaF3): 77%
